Reference: patent US5977169A, “Substituted tetronic acids useful for treating HIV and other retroviruses” (priority 1997, dated 1999)
Square brackets hold non-standard residues; d marks the D form. Peptide text beside a SMILES is read from it. * marks the point of attachment. Sta = CC(C)C[C@H](N)[C@@H](O)CC(=O)O; Isovaleryl = CC(C)CC(=O)*

Assays:
[1] = test system: viral reverse transcriptase; conditions: literature; cited from earlier work
[2] = test system: HIV-1IIIB; experiment: Inhibition of retroviral replication in human T-cell lines, e.g., MT4 and H9, infected with HIV-1IIIB; type: cell-based
[3] = biological target: T1, HIV-1 protease (Human immunodeficiency virus type 1 group M subtype B, UniProt P04585); experiment: In vitro HIV protease inhibitory assay (fluorescently labeled substrate, avidin-polystyrene particles); type: biochemical; conditions: for inhibition at 3.3 µM: HIV-1 dose 3.3 μM; for inhibition at 10 µM: HIV-1 dose 10.0 μM; for inhibition at 30 µM: HIV-1 dose 30.0 μM
T1 construct: The protease (or proteinase) enzyme, consisting of only 99 amino acids
How it was run: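 Biotinylated, FITC-labelled peptide substrate cleaved by HIV-1 protease for 1 h at room temperature in the dark, in 0.1 M sodium acetate pH 5.5 with 1.0 M NaCl and 0.05% NP-40. Product separated from substrate with avidin-polystyrene beads and filtration; fluorescence read as percent inhibition at stated compound concentrations.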

[4] = test system: HIV-I protease; conditions: literature; cited from earlier work

Compound	inhibition of viral reverse transcriptase [1]	inhibition of retroviral replication [2]	inhibition at 3.3 µM [3] [%]	inhibition at 10 µM [3] [%]	inhibition at 30 µM [3] [%]	inhibition of HIV-I protease [4]
Cc1cn([C@H]2C[C@H](N=[N+]=[N-])[C@@H](CO)O2)c(=O)[nH]c1=O [AZT, 3-azido-3-deoxythymidine]	known inhibitor of viral reverse transcriptase	–	–	–	–	–
CCCC1(CCC)OC(=O)C(C(c2cccc(NS(=O)(=O)c3ccc(C#N)cc3)c2)C2CC2)=C1O (centres unmarked) [IX-14]	–	found to inhibit retroviral replication	113	111	119	–
CCCC1(CCC)OC(=O)C(C(c2cccc(NS(=O)(=O)c3cn(C)cn3)c2)C2CC2)=C1O (centres unmarked) [IX-17]	–	found to inhibit retroviral replication	108	111	108	–
CCCC1(CCC)OC(=O)C(C(c2cccc(NS(=O)(=O)c3cn(C)cn3)c2)C(C)C)=C1O (centres unmarked) [IX-24, 1H-Imidazole-4-sulfonamide, N-(3-(1-(4-hydroxy-2-oxo-5,5-dipropyl-2,5-dihydro-furan-3-yl)-2-methyl-propyl)-phenyl)-1-methyl-]	–	found to inhibit retroviral replication	102	101	102	–
CC(C)CC(=O)N[C@H](C(=O)N[C@H](C(=O)N[C@@H](CC(C)C)[C@@H](O)CC(=O)N[C@@H](C)C(=O)N[C@@H](CC(C)C)[C@@H](O)CC(=O)O)C(C)C)C(C)C [Pepstatin A] (Isovaleryl-VV[Sta]A[Sta]-OH)	–	–	–	–	–	disclosed as an inhibitor of HIV-I protease
